Like-named read-outs stand apart in the source and are kept apart here.
Assays:
[1] = system: nicotine-induced antinociception; assay: Antagonism of nicotine-induced antinociception, tail-flick test; assay type: in vivo, mouse; details: mice
rat α3β4-nAChR = rat α3β4-nAChR (Rattus norvegicus, UniProt P04757+P12392); assay: Electrophysiology; assay type: cell-based; details: 100 μM compound; rat receptor in Xenopus oocytes
rat α7-nAChR [2] = target: T1, rat α7-nAChR (Rattus norvegicus, UniProt Q05941); assay type: cell-based
α4β2*-nAChRs = α4β2*-nAChRs (Rattus norvegicus, UniProt P09483+P12390); assay: biochemical; assay type: binding
mice [3] = details: agonist antinociception, ref [5]; cited from earlier work
mice [4] = details: agonist antinociception, ref [5]; cited from earlier work; remark: listed apart in the source
mice [5] = details: ref [5]; cited from earlier work
mice [6] = details: Table 1, head line above prints AD50 (μg/kg), ref [5]; cited from earlier work
rat α7-nAChR [7] = target: T1, rat α7-nAChR; assay: cell-based; details: read-out: antagonist activity at α7-nAChRs, % inhibition

T1 sequence (Q05941 23-502): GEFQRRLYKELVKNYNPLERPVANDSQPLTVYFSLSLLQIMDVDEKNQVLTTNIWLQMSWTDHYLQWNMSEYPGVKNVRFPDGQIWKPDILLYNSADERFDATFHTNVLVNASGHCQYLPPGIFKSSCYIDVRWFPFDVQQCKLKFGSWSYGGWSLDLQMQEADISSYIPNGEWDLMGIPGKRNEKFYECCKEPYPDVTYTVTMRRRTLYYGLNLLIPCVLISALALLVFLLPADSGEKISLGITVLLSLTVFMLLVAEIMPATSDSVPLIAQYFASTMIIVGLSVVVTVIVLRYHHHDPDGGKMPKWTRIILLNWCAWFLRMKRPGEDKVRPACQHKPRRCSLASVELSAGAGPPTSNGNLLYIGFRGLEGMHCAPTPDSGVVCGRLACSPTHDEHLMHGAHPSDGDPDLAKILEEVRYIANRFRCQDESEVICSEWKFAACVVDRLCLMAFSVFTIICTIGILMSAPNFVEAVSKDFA
Chain of rat α3β4-nAChR (P04757 26-499): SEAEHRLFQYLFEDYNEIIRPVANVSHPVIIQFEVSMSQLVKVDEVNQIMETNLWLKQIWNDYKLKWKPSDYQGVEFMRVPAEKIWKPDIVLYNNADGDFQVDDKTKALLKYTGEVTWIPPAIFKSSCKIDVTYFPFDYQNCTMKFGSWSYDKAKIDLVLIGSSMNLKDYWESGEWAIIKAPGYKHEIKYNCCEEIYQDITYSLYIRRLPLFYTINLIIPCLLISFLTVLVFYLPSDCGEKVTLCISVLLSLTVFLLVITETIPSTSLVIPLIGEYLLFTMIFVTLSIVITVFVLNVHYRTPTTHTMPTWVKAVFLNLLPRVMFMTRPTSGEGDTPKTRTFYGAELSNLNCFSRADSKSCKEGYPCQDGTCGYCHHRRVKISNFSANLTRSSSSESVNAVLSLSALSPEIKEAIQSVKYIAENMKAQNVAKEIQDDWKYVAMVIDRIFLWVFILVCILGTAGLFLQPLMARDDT
Chain of rat α3β4-nAChR (P12392 21-495): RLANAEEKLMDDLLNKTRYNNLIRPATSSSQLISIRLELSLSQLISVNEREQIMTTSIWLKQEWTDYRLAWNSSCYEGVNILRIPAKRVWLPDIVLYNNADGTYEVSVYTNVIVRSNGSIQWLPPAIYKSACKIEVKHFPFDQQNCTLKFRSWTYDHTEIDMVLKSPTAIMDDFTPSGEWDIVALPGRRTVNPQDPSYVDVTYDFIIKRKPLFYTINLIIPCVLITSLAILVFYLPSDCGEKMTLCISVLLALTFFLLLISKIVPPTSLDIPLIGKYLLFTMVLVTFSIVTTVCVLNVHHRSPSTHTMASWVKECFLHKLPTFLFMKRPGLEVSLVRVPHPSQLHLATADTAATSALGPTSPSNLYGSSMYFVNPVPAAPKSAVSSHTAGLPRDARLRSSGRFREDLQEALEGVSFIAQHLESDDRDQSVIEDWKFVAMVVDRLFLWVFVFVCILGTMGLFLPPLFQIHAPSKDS
Chain of α4β2*-nAChRs (P09483 31-630): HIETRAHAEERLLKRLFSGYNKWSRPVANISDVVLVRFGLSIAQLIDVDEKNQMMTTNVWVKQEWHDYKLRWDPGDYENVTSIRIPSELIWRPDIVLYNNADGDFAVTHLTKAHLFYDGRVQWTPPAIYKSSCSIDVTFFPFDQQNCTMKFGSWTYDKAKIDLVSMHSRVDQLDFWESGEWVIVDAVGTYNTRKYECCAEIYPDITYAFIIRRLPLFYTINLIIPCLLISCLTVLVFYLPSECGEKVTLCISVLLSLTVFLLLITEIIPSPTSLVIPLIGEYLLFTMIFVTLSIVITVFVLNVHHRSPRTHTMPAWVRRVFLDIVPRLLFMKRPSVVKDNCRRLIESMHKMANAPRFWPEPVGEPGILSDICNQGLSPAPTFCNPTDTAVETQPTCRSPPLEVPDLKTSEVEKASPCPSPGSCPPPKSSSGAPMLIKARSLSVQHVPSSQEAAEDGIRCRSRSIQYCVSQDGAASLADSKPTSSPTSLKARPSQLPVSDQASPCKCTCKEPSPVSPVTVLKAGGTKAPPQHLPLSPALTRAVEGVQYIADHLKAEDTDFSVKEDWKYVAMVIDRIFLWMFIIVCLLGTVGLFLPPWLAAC
Chain of α4β2*-nAChRs (P12390 25-500): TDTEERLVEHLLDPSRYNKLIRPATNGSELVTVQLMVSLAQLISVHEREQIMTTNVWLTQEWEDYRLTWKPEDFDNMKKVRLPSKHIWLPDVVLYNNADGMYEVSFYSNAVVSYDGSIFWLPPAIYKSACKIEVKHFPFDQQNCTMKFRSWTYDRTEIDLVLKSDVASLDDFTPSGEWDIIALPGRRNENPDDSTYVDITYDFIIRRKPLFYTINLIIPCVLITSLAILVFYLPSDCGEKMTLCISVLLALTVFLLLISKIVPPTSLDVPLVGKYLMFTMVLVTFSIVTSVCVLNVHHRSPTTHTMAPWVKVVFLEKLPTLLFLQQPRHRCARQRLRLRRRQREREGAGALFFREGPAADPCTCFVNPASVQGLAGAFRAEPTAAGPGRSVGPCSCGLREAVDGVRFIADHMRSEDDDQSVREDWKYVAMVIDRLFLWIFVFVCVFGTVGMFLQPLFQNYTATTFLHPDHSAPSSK

## Clc1cc(-c2cncc([C@H]3C[C@H]4CC[C@H]3N4)c2)ccn1 [Compound 5c, 2-exo-[3′-(2-Chloropyridin-4-yl)-5′-pyridnyl]-7-azabicyclo[2.2.1]heptane]
[1]
  AD50 Tail-Flick: 110 (20–645) μg/kg

## c1cc(-c2cncc([C@H]3C[C@H]4CC[C@H]3N4)c2)ccn1 [Compound 5a, 2-exo-[3′-(Pyridin-4-yl)-5′-pyridnyl]-7-azabicyclo[2.2.1]heptane]
[1]
  AD50 Tail-Flick: 39 (4–63) μg/kg

## Nc1ccc(-c2cncc([C@H]3C[C@H]4CC[C@H]3N4)c2)cn1 [Compound 6d, 2-exo-[3′-(2″-Aminopyridin-5″-yl)-5′-pyridnyl]-7-azabicyclo[2.2.1]heptane]
[1]
  AD50 Tail-Flick: 1.5 (0.5–4.1) μg/kg
Rat α3β4-nAChR
  Agonist Activity (% of max ACh at 100 μM) α3β4: little or no agonist activity

## Clc1ccc(-c2cncc([C@H]3C[C@H]4CC[C@H]3N4)c2)cn1 [Compound 6c, 2-exo-[3′-(2″-Chloropyridin-5″-yl)-5′-pyridnyl]-7-azabicyclo[2.2.1]heptane]
[1]
  AD50 Tail-Flick: 0.5 (0.05–4.7) μg/kg

## Nc1cc(-c2cncc([C@H]3C[C@H]4CC[C@H]3N4)c2)ccn1 [Compound 5d, 2-exo-[3′-(2-Aminopyridin-4-yl)-5′-pyridnyl]-7-azabicyclo[2.2.1]heptane]
[1]
  AD50 Tail-Flick: 1 (0.13–1.4) μg/kg
Rat α3β4-nAChR
  Agonist Activity (% of max ACh at 100 μM) α3β4: little or no agonist activity

## Fc1ccc(-c2cncc([C@H]3C[C@H]4CC[C@H]3N4)c2)cn1 [Compound 6b, 2-exo-[3′-(2″-Fluoropyridin-5″-yl)-5′-pyridnyl]-7-azabicyclo[2.2.1]heptane]
Rat α7-nAChR [2]
  Agonist Activity (% of max ACh at 100 μM) α7: little or no agonist activity

## c1cncc(-c2cncc([C@H]3C[C@H]4CC[C@H]3N4)c2)c1 [Compound 6a, 2-exo-[3′-(Pyridin-3″-yl)-5′-pyridnyl]-7-azabicyclo[2.2.1]heptane]
α4β2*-nAChRs
  Ki: 120 pM
[1]
  AD50 Tail-Flick: 0.68 (0.11–4) μg/kg

## CN1CCC[C@H]1c1cccnc1 [nicotine]
Mice [3]
  ED50 Tail-Flick: 1.3 (0.5–1.8) mg/kg
Mice [4]
  ED50 Hot-Plate: 0.65 (0.25–0.85) mg/kg
Mice [5]
  ED50 Hypothermia: 1.0 (0.6–2.1) mg/kg
Mice [6]
  ED50 Spontaneous Activity: 0.5 (0.15–0.78) μg/kg

## COc1cc(-c2cncc([C@H]3C[C@H]4CC[C@H]3N4)c2)ccn1 [Compound 5e, 2-exo-[3′-(2-Methoxypyridin-4-yl)-5′-pyridnyl]-7-azabicyclo[2.2.1]heptane]
[1]
  AD50 Tail-Flick: 0.3 (0.04–20) μg/kg

## COc1ccc(-c2cncc([C@H]3C[C@H]4CC[C@H]3N4)c2)cn1 [Compound 6e, 2-exo-[3′-(2″-Methoxypyridin-5″-yl)-5′-pyridnyl]-7-azabicyclo[2.2.1]heptane]
[1]
  AD50 Tail-Flick: 0.5 (0.05–4.7) μg/kg
Rat α7-nAChR [2]; 100 μM compound, rat receptor in Xenopus oocytes
  Agonist Activity (% of max ACh at 100 μM) α7: little or no agonist activity
Rat α7-nAChR [7]
  inhibition at 100 µM: > 80%

From publication PMC4554999 (Bioorganic & medicinal chemistry, 2015)
